Measurements as given in patent US20220274954A1, “SUBSTITUTED N-PHENYL-N-AMINOUARCILS AND SALTS THEREOF AND USE THEREOF AS HERBICIDAL AGENTS” (Bayer Aktiengesellschaft, priority 2019, published 2022).

Legend:
Type in all cases: in vivo
Veronica persica = test: Post-emergence herbicidal action
Procedure: (§1) Seeds of monocotyledonous and dicotyledonous weeds and crop plants were placed in sandy loam in plastic or wood-fiber pots, covered with soil and cultivated in a greenhouse under controlled growth conditions. 2 to 3 weeks after sowing, the test plants were treated at the one-leaf stage. The compounds of the invention, formulated in the form of wettable powders (WP) or as emulsion concentrates (EC), were then sprayed onto the green parts of the plants as aqueous suspension or emulsion with addition of 0.5% additive at a water application rate of […] (converted). After the test plants had been kept in the greenhouse under optimum growth conditions for about 3 weeks, the activity of the preparations was rated visually in comparison to untreated controls. For example, 100% activity=the plants have died, 0% activity=like control plants. Tables A1 to A14 below show the effects of selected compounds of the general formula (I) according to Tables I.1 to I.34 on various harmful plants and at an application rate corresponding to 20 g/ha and less, which were obtained by the experimental procedure mentioned above.

Matricaria inodora = test: Post-emergence herbicidal action
Procedure: as §1

Abutilon theophrasti = test: Post-emergence herbicidal action
Procedure: as §1

Amaranthus retroflexus = test: Post-emergence herbicidal action
Procedure: as §1

Alopecurus myosuroides = test: Post-emergence herbicidal action
Procedure: as §1

Viola tricolor = test: Post-emergence herbicidal action
Procedure: as §1

Pharbitis purpurea = test: Post-emergence herbicidal action
Procedure: as §1

Echinochloa crus-galli = test: Post-emergence herbicidal action
Procedure: as §1

Triticum aestivum = test: Post-emergence crop plant compatibility; details: application rate 1.25 g/ha
Procedure: as §1, with “plants.” for “plants. Tables A1 to A14 below show the effects of selected compounds of the general formula (I) according to Tables I.1 to I.34 on various harmful plants and at an application rate corresponding to 20 g/ha and less, which were obtained by the experimental procedure mentioned above.”
(§2) Here, the observed effects on selected crop plants are stated in comparison to the untreated controls (values in %).

Avena fatua = test: Post-emergence herbicidal action; details: application rate 20 g/ha
Procedure: as §1

Oryza sativa = test: Post-emergence crop plant compatibility; details: application rate 1.25 g/ha
Procedure: as §1, with “plants.” for “plants. Tables A1 to A14 below show the effects of selected compounds of the general formula (I) according to Tables I.1 to I.34 on various harmful plants and at an application rate corresponding to 20 g/ha and less, which were obtained by the experimental procedure mentioned above.”
as §2

| Compound | Veronica persica (efficacy in %) (Veronica persica; application rate 5 g/ha) [%] | Veronica persica (efficacy in %) (Veronica persica; application rate 20 g/ha) [%] | Matricaria inodora (efficacy in %) (Matricaria inodora; application rate 5 g/ha) [%] | Matricaria inodora (efficacy in %) (Matricaria inodora; application rate 20 g/ha) [%] | Abutilon theophrasti (efficacy in %) (Abutilon theophrasti; application rate 5 g/ha) [%] | Abutilon theophrasti (efficacy in %) (Abutilon theophrasti; application rate 20 g/ha) [%] | Amaranthus retroflexus (efficacy in %) (Amaranthus retroflexus; application rate 5 g/ha) [%] | Amaranthus retroflexus (efficacy in %) (Amaranthus retroflexus; application rate 20 g/ha) [%] | Alopecurus myosuroides (efficacy in %) (Alopecurus myosuroides; application rate 5 g/ha) [%] | Alopecurus myosuroides (efficacy in %) (Alopecurus myosuroides; application rate 20 g/ha) [%] | Viola tricolor (efficacy in %) (Viola tricolor; application rate 5 g/ha) [%] | Viola tricolor (efficacy in %) (Viola tricolor; application rate 20 g/ha) [%] | Pharbitis purpurea (efficacy in %) (Pharbitis purpurea; application rate 5 g/ha) [%] | Pharbitis purpurea (efficacy in %) (Pharbitis purpurea; application rate 20 g/ha) [%] | Echinochloa crus-galli (efficacy in %) (Echinochloa crus-galli; application rate 5 g/ha) [%] | Echinochloa crus-galli (efficacy in %) (Echinochloa crus-galli; application rate 20 g/ha) [%] | Triticum aestivum (efficacy in %) (Triticum aestivum) [%] | Avena fatua (efficacy in %) (Avena fatua) [%] | Oryza sativa (efficacy in %) (Oryza sativa) [%] |
| --- | --- | --- | --- | --- | --- | --- | --- | --- | --- | --- | --- | --- | --- | --- | --- | --- | --- | --- | --- |
| Nn1c(C(F)(F)F)cc(=O)n(-c2cc(Sc3cccnc3OCC(=O)OC3COC3)c(Cl)cc2F)c1=O [I.1-115] | 100 | 100 | 100 | 100 | 90 | 100 | 100 | 100 | 80 | 100 | 100 | 100 | 100 | 100 | 90 | 100 | 20 | – | – |
| N#CCOC(=O)COc1ncccc1Sc1cc(-n2c(=O)cc(C(F)(F)F)n(N)c2=O)c(F)cc1Cl [I.1-176] | 100 | 100 | 100 | 100 | 100 | 100 | 100 | 100 | 90 | 100 | 100 | 100 | 100 | 100 | 90 | 100 | 20 | 80 | – |
| Nn1c(C(F)(F)F)cc(=O)n(-c2cc(Sc3cccnc3OCC(=O)OCc3ccccn3)c(Cl)cc2F)c1=O [I.1-286] | 100 | 100 | 100 | 100 | 100 | 100 | 100 | 100 | 100 | 100 | 100 | 100 | 100 | – | – | – | 20 | 80 | 0 |
